Columns and labels:
Prodan-G-actin [1] = target: T1, Prodan-G-actin (Oryctolagus cuniculus, UniProt P68135); assay: Kinetic analysis of binding to Prodan-G-actin (stopped-flow and slow phase); parameters: F-actin is purified from rabbit skeletal muscle using a standard protocol; Prodan (Acrylodan) fluorophore, chemical label on the thiol of Cys374; from tissue; host or cells: rabbit skeletal muscle; species or system rabbit
Method: FIG. 3: Kinetic analyses of KabC binding of Prodan labeled G-actin. (A-B). Prodan-actin (0.1 μM) and KabC, loaded into separated syringes, were rapidly mixed within ˜1 msec dead-time. The concentrations of KabC were 0.0 μM (a), 1.0 μM (b), 1.5 μM (c), 2.0 μM (d) and 2.5 μM (data not shown), respectively. The decreases in emission intensity were well fitted with single exponential functions to determine the observed rate, kobs. The observed rates are plotted as a function of the [KabC] in panel (B).
Kinetic analysis of binding reactions. The kinetics of the KabC interaction with Prodan-actin is determined, using an Applied Photophysics SX.18MV Stopped-flow spectrometer, by following the decrease in the emission intensity of Prodan-actin at 25° C. Prodan was excited at 385 nm and emission was collected with a 470 nm (+/−5 nm) band-pass filter. In all cases the decrease in emission intensity was best fit with a single exponential function, which was then used to determine the observed rate, kobs. Kinetic constants of on rate (kon) and off rate (koff) were calculated according to the following equation: kobs=kon[KabC]+koff. The kinetics of the slower binding step observed in the interaction of KabC with Prodan-G-actin interaction is measured by measuring the ratio of fluorescence signals at 465 nm and 530 nm. The decay of this ratio is fit using a single exponential rate.

NBT-II cells = assay: Effect of macrolides on NBT-II cells (live cell microscopy); format: cell-based, rat
Method: FIG. 7: Effect of KabC on NBT-II cells. NBT-II cells are imaged after 16 hours of drug treatment. KabC concentrations: (A), Control; (B), 10 nM; (C), 100 nM and (D), 1000 nM.
Cell Culture: Rat bladder NBT-II carcinoma cells and mouse NIH 3T3 fibroblast cells are maintained and treated with external drugs as described in Choidas et al (1998).
Live cell microscopy: A multi-model microscope workstation was used to image phase contrast and fluorescence images of living cells (Choidas et al, 1998). Cells are maintained at 37° in a Hepes based culture medium in a Bioptechs cell perfusion chamber (Choidas et al, 1998).

Prodan-G-actin [2] = target: T1, Prodan-G-actin; assay: Competition-binding assay with GS1 and CapG on Prodan-G-actin; parameters: F-actin is purified from rabbit skeletal muscle using a standard protocol; from tissue; host or cells: actin from rabbit skeletal muscle; CapG and GS1 expressed in E. coli M15; species or system rabbit
Method: FIG. 4: (A) CapG: (a), Prodan-G-actin (100 nM), (b), Prodan-G-actin-CapG; (c), same as (b) in the presence of 0.2 μM KabC; (B); GS1: (a), Prodan-G-actin 100 nM; (b), Prodan-G-actin-GS1; (c), same as (b) in the presence of 0.2 μM KabC.
Characterization of actin binding proteins: The actin-binding properties of the ABPs used in this study are evaluated from changes in the fluorescence emission spectrum of Prodan-actin and actin polymerization assays as described by Marriott et al (1988).
Trisoxazolemacrolides specifically compete with GS1 for the (+)-end binding site on actin. Gelsolin, a monomeric 80 kD cytoskeleton protein composed of six domains interacts with actin filaments in a complex, Ca^2+-dependent manner (Janmey et al, 1985; Burtnick et al, 1997). Gelsolin exerts two major effects once bound to an actin filament: first it severs the filament and second it remains tightly bound to the severed (+)-end and serves to block, or cap, further growth. […] Structural analyses of G-actin complexes with GS1 (McLaughlin et al, 1993) and KabC show these unrelated molecules bind to G-actin through common contact sites that include a patch of hydrophobic residues on the surface between sub-domains 1 and 3 and within the cleft that forms between the interface of sub-domains 1 and 3 (McLaughlin et al, 1993;). GS1 binding to Prodan-G-actin shifts the average energy of the fluorescence emission to the red and is accompanied by a decrease in the quantum yield (FIG. 4A) but not to the extent seen in the KabC-G-actin complex (FIG. 2).
Trisoxazolemacrolides specifically compete with CapG for the (+)-end binding site on actin. CapG, a Ca^2+-dependent, (+)-end actin filament capping protein, is found at high levels in macrophage cells where it regulates membrane ruffling and cell protrusions associated with phagocytosis and motility (Botelho et. al., 2000). […] The Ca^2+-dependent binding of CapG to Prodan-G-actin is accompanied by a dramatic blue-shift in the emission spectrum and an increase in quantum yield (FIG. 4B, curve b). The difference in fluorescence emission spectra between free and CapG-bound Prodan-G-actin is used to quantify the parameters for this binding reaction. The G-actin-CapG complex exists as a 1:1 complex and has a dissociation constant of 100 nM (data not shown). […] This conclusion is consistent with a comparison of high-resolution structures of G-actin with GS1 and KabC and a preliminary analysis of a 2.8 Angstrom structure of a CapG mutant (Vorobiev et al, PDB database, 2002). […] However the emission properties of the CapG-Prodan-G-actin complex are unaffected by the binding of LatA, DNAse and thymosin β4 (Tβ4), which is consistent with some structural data showing that these sequestering molecules bind closer to the ATP pocket and DNAse binding loop (Kabsch et al, 1990).

Prodan-labeled G-actin = target: T2, Prodan-labeled G-actin (Oryctolagus cuniculus, UniProt P68135); assay: Prodan-G-actin titration: binding stoichiometry and dissociation constant; parameters: species or system rabbit; conditions: Prodan-G-actin titration; read-out: dissociation constant of G-actin complex
T2 construct: F-actin is purified from rabbit skeletal muscle using a standard protocol; Prodan (Acrylodan) fluorophore, chemical label on the thiol of Cys374; from tissue; host or cells: rabbit skeletal muscle
Method: FIG. 2: (A), Stoichiometric binding of Prodan-labeled G-actin (1 μM) in G-buffer with KabC at final concentrations of in μm, a: 0.0; b: 0.1; c: 0.2; d: 0.3; e: 0.4; f: 0.5; g: 0.6; h: 0.7; i: 0.8; j: 0.9; k: 1.0; l: 1.1; m: 1.2; n: 1.5 (B), Plot of the integrated intensity in (A) against [KabC] yields a binding stoichiometry of 1:1.
Prodan-actin: Actin is labeled with the thiol probe, Acrylodan (Molecular Probes, Eugene, Oreg.) using a standard protocol (Marriott et al, 1988). Rabbit muscle G-actin is labeled with the thiol reactive, environmentally sensitive probe, Acrylodan, according to the inventor's earlier publication (Marriott et al, 1988). […]
Determination of the binding stoichiometry and dissociation constants for G-actin complexes with ABPs and macrolide drugs: The change in the quantum yield and/or emission energy of Prodan-actin is used to quantify the interaction of CapG and macrolides with G-actin. The stoichiometry of the CapG-G-actin and macrolide-G-actin complex is determined by titrating Prodan-G-actin at 1 μM with increasing amounts of CapG or the macrolide from 0.1^−10 μM. […] The equilibrium binding constant is determined by titrating a constant amount of Prodan labeled G-actin at 0.05˜0.1 μM in G- or F-buffer with incrementally increasing amounts of the macrolide or CapG over a range of 10 nM to 10 μM. […]

Molecule | cytotoxic activity on NBT II epithelia cells (NBT-II cells) | effect of binding on emission properties of CapG-Prodan-G-actin complex (Prodan-G-actin [2]) | other results
Ulapualide A [UlaA] | concentration dependent cytotoxic activity |  | binding steps in reaction with G-actin (Prodan-G-actin [1]): 1st and 2nd-binding steps are common
CO[C@H]1C[C@H](CC[C@H](C)[C@H](O)[C@H](C)[C@H]2OC(=O)/C=C/C(C)=C/C[C@H](O)C[C@@H]3C=CC[C@@H](C[C@H](OC)[C@@H](C)[C@@H](O)C[C@@H](O)[C@H](C)[C@@H]([C@@H](C)[C@@H](O)[C@@H](C)CC[C@H]4C[C@H](OC)C[C@H](C)O4)OC(=O)/C=C/C(C)=C/C[C@H](O)C[C@@H]4C=CC[C@@H](C[C@H](OC)[C@@H](C)[C@@H](O)C[C@@H](O)[C@@H]2C)O4)O3)O[C@@H](C)C1 [SwiA, Swinholide A] | concentration dependent cytotoxic activity |  | binding site on actin by competition-binding assay (Prodan-G-actin [2]): bind to the same site on actin as KabC, CapG and GS1
DNAse |  | unaffected | 
thymosin β4: actin monomer sequestering protein |  | unaffected | 
CO[C@H]1C[C@H](CC[C@H](C)[C@H](O)[C@H](C)[C@H]2OC(=O)/C(C)=C/C[C@H](O)C[C@@H]3C=CC[C@@H](C[C@H](OC)[C@@H](C)[C@@H](O)C[C@@H](O)[C@H](C)[C@@H]([C@@H](C)[C@@H](O)[C@@H](C)CC[C@H]4C[C@H](OC)C[C@H](C)O4)OC(=O)/C(C)=C/C[C@H](O)C[C@@H]4C=CC[C@@H](C[C@H](OC)[C@@H](C)[C@@H](O)C[C@@H](O)[C@@H]2C)O4)O3)O[C@@H](C)C1 [MisA, misakinolide A] | concentration dependent cytotoxic activity |  | binding site on actin by competition-binding assay (Prodan-G-actin [2]): bind to the same site on actin as KabC, CapG and GS1
COC(CC1OC(=O)CC(O)C/C=C/C(=O)C(C)C(OC)c2coc(n2)-c2coc(n2)-c2coc(n2)/C=C/CCC1C)C(C)CCC(=O)C(C)C(C/C=C/N(C)C=O)OC (stereo not drawn) [Hal, halichondramide] | concentration dependent cytotoxic activity |  | binding steps in reaction with G-actin (Prodan-G-actin [1]): 1st and 2nd-binding steps are common
C/C1=C/C(=O)O[C@@H]2C[C@@H](CC[C@H](C)/C=C\C=C\CC1)O[C@@](O)([C@@H]1CSC(=O)N1)C2 [LatA] |  | unaffected | 
CapG: Ca^2+-dependent, (+)-end actin filament capping protein, cloned from mouse brain cDNA library (protein, UniProt P24452 1-352, looked up) Macrophage-capping protein: MYTPIPQSGSPFPASVQDPGLHIWRVEKLKPVPIARESHGIFFSGDSYLVLHNGPEEASHLHLWIGQQSSRDEQGACAVLAVHLNTLLGERPVQHREVQGNESDLFMSYFPRGLKYYREGGVESAFHKTTSGARGAAIRKLYQVKGKKNIRATERPLSWDSFNTGDCFILDLGQNIFAWCGGKSNILERNKARDLALAIRDSERQGKAQVEIITDGEEPAEMIQVLGPKPALKEGNPEEDITADQTRPNAQAAALYKVSDATGQMNLTKVADSSPFASELLIPDDCFVLDNGLCAQIYIWKGRKANEKERQAALQVADGFISRMRYSPNTQVEILPQGRESPIFKQFFKNWK |  |  | Kd (Prodan-labeled G-actin): 100 nM
